Measured values as given in US10765659B2, “Potentiated tulathromycin” (SEPTEOS, priority 2016, dated 2020).
Where two headings read alike, the source gives them in different places.

Experiments:
[1] = system: Actinobacillus pleuropneumoniae; assay: MIC measurement in solid agar medium (CLSI); type: cell-based
Experimental: (§1) “MIC” means “minimal inhibitory concentration”, which is the lowest concentration of substance at which microbial growth is no longer observed after 18 to 24 hours of contact under conditions favourable to microbial growth.
(§2) The minimum inhibitory concentration measurement tests are performed in a solid agar medium according to current international standards (CLSI standards M7-A9 January 12): dispersion of the compounds to be tested in Mueller Hinton agar. An adaptation relating to the hydrophobicity of the compounds and compositions is however necessary to disperse them in the medium: the compounds are diluted in a solvent. The compounds and compositions incorporated in the agar may be first diluted in one or more solvents (Tween® 80 diluted in water, Tween@ 80 diluted in propylene, DMSO diluted in water). The medium may be cation-adjusted. The strains are deposited on the surface of the agar with a Steers apparatus. In the examples, various methods for dissolving the products are tested in parallel to circumvent problems related to the water/solvent distribution coefficient of the molecules (antimicrobial and potentiator) as the bacteria grow only in the aqueous phase. The technical constraint will not affect the in vivo tests. The same dilution methods can be used in liquid media (microplates and tubes). The same methodology is used with fungi.
(§3) MIC measurement: The minimum inhibitory concentration measurement tests are performed in solid agar medium according to current international standards (CLSI standards), according to the protocol defined above. The compounds and compositions incorporated in the agar may be first diluted in one or more solvents (ethanol, or DMSO diluted in water).

Streptococcus suis = assay: MIC measurement in solid agar medium (CLSI); type: cell-based
Experimental: as §1, §2, §3

Enterococcus = assay: MIC measurement in solid agar medium (CLSI); type: cell-based
Experimental: as §1, §2, §3

E. coli = assay: MIC measurement in solid agar medium (CLSI); type: cell-based
Experimental: as §1, §2, §3

Staphylococcus [2] = assay: MIC measurement in solid agar medium (CLSI); type: cell-based
Experimental: as §1, §2, §3

[3] = system: strain 13043 (Actinobacillus pleuropneumoniae); assay: Growth test / bactericidal action test in liquid medium; type: cell-based; conditions: strain 13043, DMSO, tulathromycin at 16 times its MIC, cineole at 1 mg/L
Experimental: (§4) Growth tests are performed in liquid medium with prior dispersion of the antibiotic booster in a suitable solvent (here DMSO).
(§5) Bacterial growth kinetics are measured in the presence of tulathromycin (at a concentration of 4 or 16 times its MIC); tulathromycin (at a concentration of 4 or 16 times its MIC) and 1,8-cineole at a mass ratio of 1:1; and tulathromycin (at a concentration of 4 or 16 times its MIC) and 1 mg of 1,8-cineole.
2 Growth Test on Strain 13043 (Actinobactllus Pleuropneumonlae) […]
diamond: control (bacteria alone in DMSO) square: tulathromycin diluted in DMSO at a concentration of 16 times its MIC triangle: tulathromycin and cineole, diluted in DMSO, tulathromycin is at a concentration of 16 times its MIC, cineole at 1 mg/L
Cross (x): cineole control, at 1 mg/L

Staphylococcus [4] = assay: Resistance test: resistant mutant colonies on Mueller Hinton plate; type: cell-based
Experimental: One hundred microlitres of a Mueller Hinton broth culture of the strain to be studied (heavy inoculum>10^10 CFU/mL) is spread on a Mueller Hinton plate containing an oil concentration equal to 0.5/1/2/4 times the MIC of tulathromycin. After 48 hours of incubation, the presence or absence of colonies likely to be resistant mutants are observed.

[5] = rat; cited from earlier work
[6] = cat; cited from earlier work
strain 13120 (E. coli) = assay: Growth test / bactericidal action test in liquid medium; type: cell-based; conditions: strain 13120, DMSO, tulathromycin at 4 times its MIC, cineole at mass ratio 1:1 or 1 mg/L
Experimental: as §4, §5
1 Growth Test on Strain 13120 (Genus E. coli) […]
diamond: control (bacteria alone in DMSO) square: tulathromycin diluted in DMSO at a concentration of 4 times its MIC triangle: tulathromycin and cineole, diluted in DMSO, tulathromycin is at a concentration of 4 times its MIC, the tulathromycin/cineole mass ratio is 1:1 Cross (x): tulathromycin and cineole, diluted in DMSO, tulathromycin is at a concentration of 4 times its MIC, cineole at 1 mg/L

[7] = system: microorganisms grown in planktonic and biofilm cultures; conditions: Hendry et al., J Antimicrob Chemother 2009; cited from earlier work

Structure (SMILES): CCCNC[C@]1(O)[C@H](C)O[C@@H](O[C@H]2[C@H](C)[C@@H](O[C@@H]3O[C@H](C)C[C@H](N(C)C)[C@H]3O)[C@](C)(O)C[C@@H](C)CN[C@H](C)[C@@H](O)[C@](C)(O)[C@@H](CC)OC(=O)[C@@H]2C)C[C@@]1(C)OC [ATB]
- MIC ([1]; strain 13012, DMSO): 2 µg/mL
- MIC ([1]; strain 13012, EtOH): 2 µg/mL
- MIC ([1]; strain 13030, DMSO): 0.5 µg/mL
- MIC ([1]; strain 13030, EtOH): 0.5 µg/mL
- MIC ([1]; strain 13032, DMSO): 0.5 µg/mL
- MIC ([1]; strain 13032, EtOH): 0.5 µg/mL
- MIC ([1]; strain 13041, DMSO): 0.5 µg/mL
- MIC ([1]; strain 13041, EtOH): 0.5 µg/mL
- MIC ([1]; strain 13042, DMSO): 0.5 µg/mL
- MIC ([1]; strain 13042, EtOH): 0.6 µg/mL
- MIC ([1]; strain 13043, DMSO): 0.5 µg/mL
- MIC ([1]; strain 13043, EtOH): 0.6 µg/mL
- MIC of tulathromycin ([1]; strain 13043, value used for growth test): 0.5 mg
- MIC ([1]; strain 13045, DMSO): 0.5 µg/mL
- MIC ([1]; strain 13045, EtOH): 0.6 µg/mL
- MIC (Streptococcus suis; strain 13092, DMSO): 1.1 µg/mL
- MIC (Streptococcus suis; strain 13092, EtOH): 1.1 µg/mL
- MIC (Enterococcus; Enterococcus strain without reference (Table 3, r6), EtOH): 0.9 µg/mL
- MIC (Enterococcus; Enterococcus strain without reference (Table 3, r7), EtOH): 1.7 µg/mL
- MIC (Enterococcus; strain 8152, EtOH): 1 µg/mL
- MIC (Enterococcus; strain 8153, EtOH): 1.42 µg/mL
- MIC (E. coli; strain 13120, DMSO): 2 µg/mL
- MIC (E. coli; strain 13120, EtOH): 2.7 µg/mL
- MIC of tulathromycin (E. coli; strain 13120, value used for growth test): 2 µg/mL
- MIC (E. coli; strain 13121, DMSO): 2 µg/mL
- MIC (E. coli; strain 13121, EtOH): 2.7 µg/mL
- MIC (E. coli; strain 13122, DMSO): 2 µg/mL
- MIC (E. coli; strain 13122, EtOH): 2 µg/mL
- MIC (E. coli; strain 13123, DMSO): 2 µg/mL
- MIC (E. coli; strain 13123, EtOH): 2 µg/mL
- MIC (E. coli; strain 13124, DMSO): 1.5 µg/mL
- MIC (E. coli; strain 13124, EtOH): 2 µg/mL
- MIC (E. coli; strain 13125, DMSO): 1.5 µg/mL
- MIC (E. coli; strain 13125, EtOH): 1.5 µg/mL
- MIC (E. coli; strain 13126, DMSO): 2 µg/mL
- MIC (E. coli; strain 13126, EtOH): 2 µg/mL
- MIC (E. coli; strain 13128, DMSO): 2 µg/mL
- MIC (E. coli; strain 13128, EtOH): 2 µg/mL
- MIC (E. coli; strain 13129, DMSO): 2.7 µg/mL
- MIC (E. coli; strain 13129, EtOH): 3.6 µg/mL
- MIC (E. coli; strain 13130, DMSO): 2 µg/mL
- MIC (E. coli; strain 13130, EtOH): 3.6 µg/mL
- MIC (E. coli; strain 13131, DMSO): 1.5 µg/mL
- MIC (E. coli; strain 13131, EtOH): 1.5 µg/mL
- MIC (E. coli; strain 13132, DMSO): 2 µg/mL
- MIC (E. coli; strain 13132, EtOH): 2.7 µg/mL
- MIC (E. coli; strain 13133, DMSO): 1.5 µg/mL
- MIC (E. coli; strain 13133, EtOH): 2 µg/mL
- MIC (E. coli; strain 13134, DMSO): 1.5 µg/mL
- MIC (E. coli; strain 13134, EtOH): 1.5 µg/mL
- MIC (E. coli; strain 13170, DMSO): 1.5 µg/mL
- MIC (E. coli; strain 13170, EtOH): 2 µg/mL
- MIC (E. coli; strain 13171, DMSO): 2.7 µg/mL
- MIC (E. coli; strain 13171, EtOH): 3.6 µg/mL
- MIC (E. coli; strain 13172, DMSO): 1.5 µg/mL
- MIC (E. coli; strain 13172, EtOH): 1.5 µg/mL
- MIC (E. coli; strain 13173, DMSO): 1.5 µg/mL
- MIC (E. coli; strain 13173, EtOH): 1.5 µg/mL
- MIC (E. coli; strain 13174, DMSO): 2 µg/mL
- MIC (E. coli; strain 13174, EtOH): 2 µg/mL
- MIC (E. coli; strain 13175, DMSO): 2 µg/mL
- MIC (E. coli; strain 13175, EtOH): 3.6 µg/mL
- MIC (E. coli; strain Q54IE2, EtOH): 0.8 µg/mL
- MIC (E. coli; strain Q96CEB, EtOH): 1.9 µg/mL
- MIC (Staphylococcus [2]; strain 8146, EtOH): 0.45 µg/mL
- MIC (Staphylococcus [2]; strain 8147, EtOH): 0.45 µg/mL
- MIC (Staphylococcus [2]; strain 8148, EtOH): 0.45 µg/mL
- MIC (Staphylococcus [2]; strain 8149, EtOH): 0.45 µg/mL
- MIC (Staphylococcus [2]; strain 8238, EtOH): 0.45 µg/mL
- MIC (Staphylococcus [2]; strain 12216, EtOH): 2.53 µg/mL
- MIC (Staphylococcus [2]; strain 13218, EtOH): 1.07 µg/mL
- MIC (Staphylococcus [2]; strain 13221, EtOH): 1.07 µg/mL
- Bacterial growth kinetics / number of bacteria (FIG. 2) [3]: bacteriostatic
- Development of mutants (Staphylococcus [4]; S. aureus (strain 8147), summary of Table 4): countless mutants
- Colonies likely to be resistant mutants after 48 hours (Staphylococcus [4]; strain 8146, ethanol solvent, 0.5 times the MIC of tulathromycin): overgrown
- Colonies likely to be resistant mutants after 48 hours (Staphylococcus [4]; strain 8146, ethanol solvent, 1 times the MIC of tulathromycin): overgrown
- Colonies likely to be resistant mutants after 48 hours (Staphylococcus [4]; strain 8146, ethanol solvent, 2 times the MIC of tulathromycin): overgrown
- Colonies likely to be resistant mutants after 48 hours (Staphylococcus [4]; strain 8146, ethanol solvent, 4 times the MIC of tulathromycin): 0
- Colonies likely to be resistant mutants after 48 hours (Staphylococcus [4]; strain 8147, ethanol solvent, 0.5 times the MIC of tulathromycin): overgrown
- Colonies likely to be resistant mutants after 48 hours (Staphylococcus [4]; strain 8147, ethanol solvent, 1 times the MIC of tulathromycin): overgrown
- Colonies likely to be resistant mutants after 48 hours (Staphylococcus [4]; strain 8147, ethanol solvent, 2 times the MIC of tulathromycin): overgrown
- Colonies likely to be resistant mutants after 48 hours (Staphylococcus [4]; strain 8147, ethanol solvent, 4 times the MIC of tulathromycin): overgrown

Structure (SMILES): Cc1ccc(C(C)C)cc1O [carvacrol]
- lowest oral lethal dose [5]: 100 mg/kg
- lowest oral lethal dose [6]: 100 mg/kg

Structure (SMILES): CC12CCC(CC1)C(C)(C)O2 [cineole, 1,8-cineole]
- Bacterial growth kinetics / bactericidal action (FIG. 1) (strain 13120 (E. coli)): increase the bactericidal action of tulathromycin
- Bacterial growth kinetics / number of bacteria (FIG. 2) [3]: significantly decrease the number of bacteria
- MIC of cineole in the publication [7]: 8000 to 64000 µg/mL
- Development of mutants (Staphylococcus [4]; strain 8146, cineole added to tulathromycin, summary of Table 5): decreases the development of mutants
